Measurements taken from paper PMC7794397, “Curbing gastrointestinal infections by defensin fragment modifications without harming commensal microbiota” (Communications Biology, 2021).
Converted amounts (≈) assume the structure as drawn. Values belong to the compound of their own block, whether it stands above or below them. Positions of bridges follow the written chain, without caps; N, C: chain ends. Non-standard residues stand in square brackets, D forms with d. Residues, ends and D or L forms follow the SMILES beside them. *: point of attachment. Palmitoyl = CCCCCCCCCCCCCCCC(=O)*; X3 = CC[C@H](C)CCCCC(=O)*; Dab = NCC[C@H](N)C(=O)O

Columns and labels:
[1] = system: A. baumannii; assay: Antibiogram of ESKAPE pathogens; assay type: cell-based; details: column assigned by order in flattened table
Excerpt: (§1) Supplementary Table 1. Antibiogram of ESKAPE pathogens used in this study.
(§2) Bacteria susceptible to all (blue color) or intermediate/resistant to at least one (red color) of antibiotics per class following the EUCAST breakpoints. Black color is shown if the susceptibility to agents in that class is not assessed. Values are minimal inhibition concentrations (MIC) in µg/ml or for Chloramphenicol in diameter (mm). […]

[2] = system: E. coli; assay: Antibiogram of ESKAPE pathogens; assay type: cell-based; details: column assigned by order in flattened table; for MIC: Escherichia coli
Excerpt: as §1, §2

[3] = system: ESKAPE pathogens; assay: organism not typed; details: one strain of A. baumannii, P. aeruginosa or E. coli, not assignable
Excerpt: as §1, §2

[4] = system: K. pneumoniae; details: one K. pneumoniae strain, which one not assignable
Excerpt: as §1, §2

[5] = system: several pathogenic bacteria; assay: Radial diffusion assay, all tested strains; assay type: cell-based
Method: (§3) Antimicrobial activity was analyzed by radial diffusion assay. Log-phase bacteria were cultivated for up to 18 h in TSB (TSB, Becton Dickinson, USA), washed and diluted to 4 × 10^6 CFU in 10 ml agar. Bacteria were incubated in 10 ml of 10 mM sodium phosphate, pH 7.4, containing 0.3 mg/ml of TSB powder and 1% (w/v) low EEO-agarose (AppliChem). 1 µg of each lipopeptide was pipetted into punched wells in a final volume of 4 µl and diffused into the gel for 3 h at 37 °C. After that, a nutrient-rich gel with 6% TSB (w/v) and 1% agarose in 10 mM sodium phosphate buffer was poured on top of the first gel and incubated for up to 24 h at 37 °C. Then the diameter of inhibition zones was measured.

[6] = system: A. baumannii DSM30007 4-MRGN
Method: Bactericidal activity was assessed by broth microdilution assay. Log-phase bacteria were collected by centrifugation (2500 rpm, 10 min, 4 °C), washed twice with 10 mM sodium phosphate buffer containing 1% (w/v) TSB and the optical density at 600 nm was adjusted to 0.1. Approximately 5 × 10^5 CFU/ml bacteria were incubated with serial peptide concentrations (1.17–150 µM) in a final volume of 100 µl in 10 mM sodium phosphate buffer containing 1% (w/v) TSB for 2 h at 37 °C. After incubation, 100 µl of 6% TSB (w/v) were added and absorbance was measured at 600 nm (Tecan, Switzerland) and monitored for 18 h. Afterward, 100 µl per well were plated on LB agar to determine the numbers of viable bacteria microbiologically. Bactericidal activity is expressed as the LC99.9, the lowest concentration that killed ≥99.9 % of bacteria.

[7] = system: S. Typhimurium; assay type: cell-based; details: radial diffusion assay
Method: as §3

[8] = system: multidrug resistant bacteria belonging to the ESKAPE pathogen panel; assay type: cell-based; details: broth microdilution, ESKAPE panel
Method: Bactericidal activity was assessed by broth microdilution assay. […] After incubation, 100 µl of 6% TSB (w/v) were added and absorbance was measured at 600 nm (Tecan, Switzerland) and monitored for 18 h. Afterward, 100 µl per well were plated on LB agar to determine the numbers of viable bacteria microbiologically. Bactericidal activity is expressed as the LC99.9, the lowest concentration that killed ≥99.9 % of bacteria.

MIC (antibiogram) ([1]; strain DSM30007): ≥ 64 µg/mL
MIC (antibiogram) ([2]; strain DSM682): ≥ 64 µg/mL
MIC (antibiogram) ([2]; strain DSM8695): ≤ 1 µg/mL
Structure (SMILES): CC(C)(O/N=C(\C(=O)N[C@@H]1C(=O)N2C(C(=O)[O-])=C(C[n+]3ccccc3)CS[C@H]12)c1csc(N)n1)C(=O)O [Ceftazidim]

Structure (SMILES): CC[C@H](C)CCCCC(=O)N[C@@H](CCN)C(=O)N[C@H](C(=O)N[C@@H](CCN)C(=O)N[C@H]1CCNC(=O)[C@H]([C@@H](C)O)NC(=O)[C@H](CCN)NC(=O)[C@H](CCN)NC(=O)[C@H](CC(C)C)NC(=O)[C@@H](CC(C)C)NC(=O)[C@H](CCN)NC1=O)[C@@H](C)O [Colistin] (X3-[Dab]T[Dab][Dab][Dab][dL]L[Dab][Dab]T; lactam 4-C (inferred); N-terminus assumed)
MIC (antibiogram) [3]: 1 µg/mL (≈ 0.855 µM)
MIC (antibiogram) [4]: 0.25 µg/mL (≈ 0.214 µM)

Structure (SMILES): CCCCCCCCCCCCCCCC(=O)N[C@@H](CCCNC(=N)N)C(=O)NCC(=O)N[C@@H](CCCCN)C(=O)N[C@@H](C)C(=O)N[C@@H](CCCCN)C(=O)N[C@@H](CS)C(=O)N[C@@H](CS)C(=O)N[C@@H](CCCCN)C(=O)O [Pam-2] (Palmitoyl-RGKAKCCK-OH; C-terminus assumed)
antimicrobial activity (in words) [5]: potent inhibition
growth inhibition of colistin- and tigecycline-resistant isolate (in words) [6]: inhibited the growth
inhibition of S. Typhimurium growth (in words) [7]: consistently inhibited
bactericidal activity (in words) [8]: highly effective

MIC ([1]; Acinetobacter baumannii, strain ECII): 4 µg/mL (≈ 6.83 µM)
MIC ([2]; strain DSM682): ≤ 0.5 µg/mL
MIC ([2]; strain DSM8695): ≤ 0.5 µg/mL
Structure (SMILES): CN(C)c1cc(NC(=O)CNC(C)(C)C)c(O)c2c1C[C@H]1C[C@H]3[C@H](N(C)C)C(O)=C(C(N)=O)C(=O)[C@@]3(O)C(O)=C1C2=O [Tigecycline]
